# Reference: US20240389846A1, “Methods for Localization of Cancerous Tissue Using Fluorescent Molecular Imaging Agent for Diagnosis or Treatment” (Vergent Bioscience, Inc., priority 2022, published 2024)
# How the values were obtained:
# tumor [1] = assay: Intraoperative NIR imaging of patients given intravenous VGT-309 before surgery (Examples 1-3); type: in vivo, human
# cancerous tissue = assay: Preclinical / animal model studies: duration of VGT-309 fluorescence in tissue after administration; type: in vivo
# Description: There are several molecular imaging agents that are currently in various stages of development and testing, but of these agents VGT-309 is particularly advantageous. VGT-309 targets and covalently binds to cathepsin targets, which are present in larger amounts in solid tumors and tumor margins than in normal tissues. When this binding occurs, the quencher is cleaved from the molecule and VGT-309 becomes “active” at which point the tumor will fluoresce under near-infrared (NIR) light.
# tumor [2] = assay: Phase 2 study: clinically significant events (CSEs) during tumor removal with imaging agent and NIR; type: in vivo, human; settings: Phase 2 study of VGT-309 in Australia
# Description: CSEs are one way to measure whether an imaging agent, such as VGT-309, adds a clinical benefit to the diagnosis and treatment process. In this context, CSEs generally fall into one of three categories: (1) localization of hard-to-find tumors, (2) identification of positive resection margins, and (3) identification of additional primary and metastatic lesions that were not previously detected using existing technologies.
compound,measurement,setting,value
CC1(C)C(/C=C/C2=C(Cl)C(=C/C=C3/N(CCCCCC(=O)NCCNC(=O)c4c(F)c(F)c(OCC(=O)[C@H](CCCCNC(=O)CCCCCN5/C(=C/C=C/C=C/C=C\C6=[N+](CCCCS(=O)(=O)[O-])c7ccc8ccccc8c7C6(C)C)C(C)(C)c6c5ccc5ccccc65)NC(=O)[C@H](Cc5ccccc5)NC(=O)OCc5ccccc5)c(F)c4F)c4ccc5cc(S(=O)(=O)O)ccc5c4C3(C)C)/CCC2)=[N+](CCCS(=O)(=O)[O-])c2ccc(N(CCCS(=O)(=O)O)CCCS(=O)(=O)O)cc21 [VGT-309],visualization of tumor under NIR imaging,"tumor [1]; Example 1, patient, 0.32 mg/kg approximately 21 hours prior to surgery",clearly show the location and extent of the tumor
same,localization of primary tumor under NIR,"tumor [1]; Example 2, patient, 0.16 mg/kg approximately 21 hours prior to surgery",more easily locate the primary tumor
same,detection of lymph node spread by fluorescence under NIR,"tumor [1]; Example 2, patient, 0.16 mg/kg approximately 21 hours prior to surgery, biopsy confirmed that the cancer had spread",unexpected fluorescence in a more distant lymph node
same,identification of previously identified (primary) tumor,"tumor [1]; Example 3, patient with regrowth after radiation, 0.32 mg/kg approximately 18.5 hours prior to surgery",able to quickly identify and remove the previously identified tumor
same,identification of additional tumors (metastatic spread) using NIR,"tumor [1]; Example 3, patient, 0.32 mg/kg approximately 18.5 hours prior to surgery, abnormal lung tissue confirmed cancerous under NIR",able to identify additional tumors using NIR
same,time VGT-309 may continue to emit a signal in tissue following administration,cancerous tissue; animal model studies suggest,out to seven days
same,time window after administration in which VGT-309 can fluoresce cancerous tissue,"cancerous tissue; based on preclinical studies, under NIR light",two hours to four days
same,fraction of patients who experienced a clinically significant event (CSE),tumor [2],one third
